US20150037394A1, “DRUG DELIVERY FORMULATIONS” (King's College London, priority 2011, published 2015)
Counter-ions that a name gives are not always drawn.

Columns and labels:
[1] = literature sources; sildenafil base value marked experimentally determined; cited from earlier work
[2] = after 15 minutes exposure to an infrared bulb; cited from earlier work
[3] = Visually determined saturated solubility in various solvents; assay type: physicochemical
Experimental: The solubility experiments were performed by weighing 0.5±0.05 g of each excipient into glass vials (28 mL). The API (5.0±0.5 mg) was weighed by difference on a plastic weigh boat and transferred into the corresponding vial. […] Once saturation was achieved the mg/g API to solvent ratio was recorded.

[4] = http://www.drugbank.ca/; cited from earlier work

SMILES	mg/ml figure listed among physicochemical properties (solubility) [1] [mg/mL]	Fold increase in permeation [2]	Visually determined saturated solubility ([3]; Solvent Arlasolve DMI) [mg/g]	Visually determined saturated solubility ([3]; Solvent Diethyl Ether) [mg/g]	Visually determined saturated solubility ([3]; Solvent EtOH) [mg/g]	Visually determined saturated solubility ([3]; Solvent IPA) [mg/g]	Visually determined saturated solubility ([3]; Solvent Isoamyl Alcohol) [mg/g]	Visually determined saturated solubility ([3]; Solvent MeOH) [mg/g]	Visually determined saturated solubility ([3]; Solvent PEG-400) [mg/g]	Visually determined saturated solubility ([3]; Solvent PG) [mg/g]	Visually determined saturated solubility ([3]; Solvent Phenoxyethanol) [mg/g]	Visually determined saturated solubility ([3]; Solvent Transcutol P) [mg/g]	Log P [4]
O=C(O)Cc1ccccc1Nc1c(Cl)cccc1Cl [Diclofenac diethyl amine]	4.1	–	–	–	–	–	–	–	–	–	–	–	–
CCCc1nn(C)c2c(=O)[nH]c(-c3cc(S(=O)(=O)N4CCN(C)CC4)ccc3OCC)nc12 [Sildenafil base]	< 0.83	–	–	–	–	–	–	–	–	–	–	–	–
O=[N+]([O-])OCC(CO[N+](=O)[O-])O[N+](=O)[O-] [nitroglycerin]	–	2-3 fold	–	–	–	–	–	–	–	–	–	–	–
O=C(O)Cc1ccccc1Nc1c(Cl)cccc1Cl [Diclofenac free acid]	–	–	57.90 to 110.45	21.28 to 49.89	31.60 to 62.79	29.97 to 58.09	34.25 to 53.55	34.43 to 68.06	28.83 to 51.73	10.15 to 20.50	34.32 to 81.12	108.73 to 162.17	–
CCCc1nn(C)c2c(=O)[nH]c(-c3cc(S(=O)(=O)N4CCN(C)CC4)ccc3OCC)nc12 [Sildenafil citrate]	–	–	<0.88	<0.90	0.54 to 1.06	<1.27	<0.45	6.60 to 10.02	3.85 to 6.32	1.90 to 2.86	6.56 to 9.88	2.14 to 2.85	–
Nc1nc2c(ncn2COCCO)c(=O)[nH]1 [Acyclovir]	–	–	<0.29	<0.54	<0.35	<0.34	<0.31	0.29 to 0.62	0.799 to 1.07	1.66 to 2.39	0.54 to 1.08	<0.30	−1.56
